According to patent US10570129B2 (Zoetis Services LLC, priority 2015, dated 2020):

Assays:
[1] = test system: Trichostrongylus colubriformis; test: Jird efficacy model; type: in vivo; details: Trichostrongylus colubriformis, sc, 96 h, read-out: Jird % (percentage efficacy)
D. immitis microfilariae = test: Dirofilaria immitis, microfilariae (DiMF) in vitro motility assay; type: cell-based; details: Dirofilaria immitis, 72 h, read-out: DiMF minimally effective dose (MEC)
Haemonchus contortus L3 = test: microbe, parasite or virus in culture; type: cell-based; details: Haemonchus contortus, 96 h, read-out: HcL3 Minimal Effective Concentration (MEC)

SMILES	inhibition in vivo at 10 mg/kg [1]	minimal effective concentration (D. immitis microfilariae)	minimal effective concentration (Haemonchus contortus L3)
O=C(NCc1ccnc(F)c1)n1c2c(c3cc(C(F)(F)F)ccc31)CN(C/C=C/c1ccc(F)cc1F)CC2 [Example 417, (E)-2-(3-(2,4-difluorophenyl)allyl)-N-((2-fluoropyridin-4-yl)methyl)-8-(trifluoromethyl)-1,2,3,4-tetrahydro-5H-pyrido[4,3-b]indole-5-carboxamide]	100%	10 µM	5.7 µM
O=C(NCc1ccnc(F)c1)n1c2c(c3cc(C(F)(F)F)ccc31)CN(C/C=C/c1ccc(F)c(Cl)c1)CC2 [Example 418, (E)-2-(3-(3-chloro-4-fluorophenyl)allyl)-N-((2-fluoropyridin-4-yl)methyl)-8-(trifluoromethyl)-1,2,3,4-tetrahydro-5H-pyrido[4,3-b]indole-5-carboxamide]	95%	18.2 µM	3.3 µM
O=C(NCc1ccnc(F)c1)n1c2c(c3cc(C(F)(F)F)ccc31)CN(C/C=C/c1ccc(F)c(F)c1)CC2 [Example 419, (E)-2-(3-(3,4-difluorophenyl)allyl)-N-((2-fluoropyridin-4-yl)methyl)-8-(trifluoromethyl)-1,2,3,4-tetrahydro-5H-pyrido[4,3-b]indole-5-carboxamide]	100%	10 µM	1 µM
N#Cc1ccc(/C=C/CN2CCc3c(c4cc(C(F)(F)F)ccc4n3C(=O)NCc3ccnc(F)c3)C2)cc1 [Example 420, (E)-2-(3-(4-cyanophenyl)allyl)-N-((2-fluoropyridin-4-yl)methyl)-8-(trifluoromethyl)-1,2,3,4-tetrahydro-5H-pyrido[4,3-b]indole-5-carboxamide]	100%	14.1 µM	2.8 µM
O=C(NCc1ccnc(F)c1)n1c2c(c3cc(C(F)(F)F)ccc31)CN(C/C=C/c1ccc(Cl)cc1)CC2 [Example 421, (E)-2-(3-(4-chlorophenyl)allyl)-N-((2-fluoropyridin-4-yl)methyl)-8-(trifluoromethyl)-1,2,3,4-tetrahydro-5H-pyrido[4,3-b]indole-5-carboxamide]	100%	12.7 µM	3.3 µM
O=C(NCc1ccnc(Cl)c1)n1c2c(c3c(Br)cccc31)CN(C/C=C/c1ccc(Cl)cc1)CC2 [Example 444, (E)-9-bromo-2-(3-(4-chlorophenyl)allyl)-N-((2-chloropyridin-4-yl)methyl)-1,2,3,4-tetrahydro-5H-pyrido[4,3-b]indole-5-carboxamide]	100%	2.4 µM	0.7 µM
CS(=O)(=O)c1ccc2c(c1)c1c(n2C(=O)NCc2ccnc(Cl)c2)CCN(C/C=C/c2ccc(F)cc2)C1 [Example 459, (E)-N-((2-chloropyridin-4-yl)methyl)-2-(3-(4-fluorophenyl)allyl)-8-(methylsulfonyl)-1,2,3,4-tetrahydro-5H-pyrido[4,3-b]indole-5-carboxamide]	92%	5.7 µM	1 µM
N#Cc1ccc(/C=C/CN2CCc3c(c4cc(F)c(OC(F)(F)F)cc4n3C(=O)NCc3ccnc(Cl)c3)C2)cc1 [Example 470, (E)-N-((2-chloropyridin-4-yl)methyl)-2-(3-(4-cyanophenyl)allyl)-8-fluoro-7-(trifluoromethoxy)-1,2,3,4-tetrahydro-5H-pyrido[4,3-b]indole-5-carboxamide]	100%	13.5 µM	1 µM
O=C(NCc1ccnc(Cl)c1)n1c2c(c3cc4c(cc31)COC4)CN(C/C=C/c1ccc(F)cc1)CC2 [Example 481, (E)-N-((2-chloropyridin-4-yl)methyl)-8-(3-(4-fluorophenyl)allyl)-1,3,6,7,8,9-hexahydro-5H-furo[3,4-f]pyrido[4,3-b]indole-5-carboxamide]	99%	3.3 µM	0.3 µM
O=C(NCc1ccnc(F)c1)n1c2c(c3cc4c(cc31)COC4)CN(C/C=C/c1ccc(Cl)cc1)CC2 [Example 483, (E)-8-(3-(4-chlorophenyl)allyl)-N-((2-fluoropyridin-4-yl)methyl)-1,3,6,7,8,9-hexahydro-5H-furo[3,4-f]pyrido[4,3-b]indole-5-carboxamide]	100%	3.3 µM	0.5 µM
O=C(NCc1cnc(Cl)s1)n1c2c(c3cc4c(cc31)COC4)CN(C/C=C/c1ccc(Cl)cc1)CC2 [Example 489, (E)-8-(3-(4-chlorophenyl)allyl)-N-((2-chlorothiazol-5-yl)methyl)-1,3,6,7,8,9-hexahydro-5H-furo[3,4-f]pyrido[4,3-b]indole-5-carboxamide]	100%	3.3 µM	3.3 µM
O=C(NCc1ccnc(Cl)c1)n1c2c(c3cc(N4CCOCC4)ccc31)CN(C/C=C/c1ccc(Cl)c(F)c1)CC2 [Example 504, (E)-2-(3-(4-chloro-3-fluorophenyl)allyl)-N-((2-chloropyridin-4-yl)methyl)-8-morpholino-1,2,3,4-tetrahydro-5H-pyrido[4,3-b]indole-5-carboxamide]	100%	10 µM	5.7 µM
O=C(NCc1ccnc(Cl)c1)n1c2c(c3cc(N4CCOCC4)ccc31)CN(C/C=C/c1ccc(Cl)cc1)CC2 [Example 505, (E)-2-(3-(4-chlorophenyl)allyl)-N-((2-chloropyridin-4-yl)methyl)-8-morpholino-1,2,3,4-tetrahydro-5H-pyrido[4,3-b]indole-5-carboxamide]	100%	13.5 µM	10 µM
